Key:
Assay type in all cases: biochemical
[1] = target: Pim1 kinase (Homo sapiens, UniProt P11309); assay: Pim1 ATP depletion assay; conditions: Pim1 ATP depletion assay; read-out: PIM1 IC50;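 note: Luciferase-luciferin luminescence readout of residual ATP after PIM1 transfers phosphate to a peptide substrate, 40 µM ATP added, reaction run to roughly half ATP consumption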
[2] = target: Pim2 kinase (Homo sapiens, UniProt Q9P1W9); assay: Pim2 ATP depletion assay; conditions: read-out: PIM2 IC50;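 note: Luciferase-based luminescent readout of ATP remaining after PIM2 phosphorylates a BAD peptide, final 5 nM enzyme, 4 µM ATP, 10 µM peptide, 2.5% DMSO, run to roughly half ATP consumption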
[3] = target: Pim3 kinase (Homo sapiens, UniProt Q86V86); assay: Pim3 ATP depletion assay; conditions: read-out: PIM3 IC50

Measured: IC50

Pim2 kinase, sequence (Q9P1W9 whole entry): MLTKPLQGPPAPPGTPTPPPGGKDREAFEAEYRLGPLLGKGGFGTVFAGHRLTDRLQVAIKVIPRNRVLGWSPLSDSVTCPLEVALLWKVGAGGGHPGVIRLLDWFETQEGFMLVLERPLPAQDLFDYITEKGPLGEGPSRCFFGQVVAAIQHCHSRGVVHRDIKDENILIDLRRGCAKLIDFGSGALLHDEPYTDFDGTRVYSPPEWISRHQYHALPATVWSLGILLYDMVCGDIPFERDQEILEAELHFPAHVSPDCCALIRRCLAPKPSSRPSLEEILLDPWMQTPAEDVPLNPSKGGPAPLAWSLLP
Pim1 kinase, sequence (P11309 whole entry): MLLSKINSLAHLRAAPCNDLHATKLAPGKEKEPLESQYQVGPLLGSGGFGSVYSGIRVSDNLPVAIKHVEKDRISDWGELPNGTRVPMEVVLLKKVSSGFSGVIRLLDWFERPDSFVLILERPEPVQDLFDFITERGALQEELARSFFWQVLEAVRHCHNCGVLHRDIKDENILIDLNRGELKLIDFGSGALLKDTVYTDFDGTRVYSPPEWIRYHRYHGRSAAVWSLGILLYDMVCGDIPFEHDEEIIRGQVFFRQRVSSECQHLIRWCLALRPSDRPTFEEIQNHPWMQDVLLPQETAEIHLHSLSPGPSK

Nc1ccc(C2CC2)nc1C(=O)Nc1cnccc1N1CCC[C@H](N)C1 [Example 638, 3-amino-N-{4-[(3S)-3-aminopiperidin-1-yl]pyridin-3-yl}-6-cyclopropyl-pyridine-2-carboxamide]
< 1 µM: all assays above

CCc1ccc(N)c(C(=O)Nc2cnccc2N2CCC[C@H](N)C2)n1 [Example 639, 3-amino-N-{4-[(3S)-3-aminopiperidin-1-yl]pyridin-3-yl}-6-ethylpyridine-2-carboxamide]
< 1 µM: all assays above

Nc1cc(-c2ccncc2NC(=O)c2nc(-c3nccs3)ccc2N)cc(C(F)(F)F)n1 [Example 640, 3-amino-N-[2′-amino-6′-(trifluoromethyl)-4,4′-bipyridin-3-yl]-6-(1,3-thiazol-2-yl)pyridine-2-carboxamide]
< 1 µM: all assays above

Cc1cc(-c2ccncc2NC(=O)c2nc(-c3nccs3)ccc2N)cc(N)n1 [Example 641, 3-amino-N-(2′-amino-6′-methyl-4,4′-bipyridin-3-yl)-6-(1,3-thiazol-2-yl)pyridine-2-carboxamide]
< 1 µM: all assays above

Nc1cc(-c2ccncc2NC(=O)c2nc(-c3nccs3)ccc2N)nc(C(F)(F)F)n1 [Example 642, 3-amino-N-{4-[6-amino-2-(trifluoromethyl)pyrimidin-4-yl]pyridin-3-yl}-6-(1,3-thiazol-2-yl)pyridine-2-carboxamide]
< 1 µM: all assays above

Cc1nc(N)cc(-c2ccncc2NC(=O)c2nc(-c3nccs3)ccc2N)n1 [Example 643, 3-amino-N-[4-(6-amino-2-methylpyrimidin-4-yl)pyridin-3-yl]-6-(1,3-thiazol-2-yl)pyridine-2-carboxamide]
< 1 µM: all assays above

Nc1ccc(C23CC4CC(CC(C4)C2)C3)nc1C(=O)Nc1cnccc1N1CCC[C@H](N)C1 [Example 645, 6-Adamantan-1-yl-3-amino-pyridine-2-carboxylic acid (3-amino-3,4,5,6-tetrahydro-2H-[1,4′]bipyridinyl-3′-yl)-amide]
< 1 µM: all assays above

Nc1cc(-c2ccncc2NC(=O)c2cccc(-c3nccs3)n2)nc(C(F)(F)F)n1 [Example 647, N-{4-[6-amino-2-(trifluoro-methyl)pyrimidin-4-yl]-pyridin-3-yl}-6-(1,3-thiazol-2-yl)pyridine-2-carboxamide]
< 1 µM: all assays above

CC(C)NC(=O)c1ccc(F)c(-c2ccc(N)c(C(=O)Nc3cnccc3N3CCC[C@H](O)C3)n2)c1 [Example 651, 3-Amino-6-(2-fluoro-5-isopropylcarbamoyl-phenyl)-pyridine-2-carboxylic acid (3-hydroxy-3,4,5,6-tetrahydro-2H-[1,4′]bipyridinyl-3′-yl)-amide]
< 1 µM: all assays above

CC(C)Oc1ccc(F)c(-c2ccc(N)c(C(=O)Nc3cnccc3N3CCC[C@H](O)C3)n2)c1F [Example 652, 3-Amino-6-(2,6-difluoro-3-isopropoxy-phenyl)-pyridine-2-carboxylic acid (3-hydroxy-3,4,5,6-tetrahydro-2H-[1,4′]bi-pyridinyl-3′-yl)-amide]
< 1 µM: all assays above

Nc1ccc(-c2c(F)cccc2F)nc1C(=O)Nc1cnccc1N1CCC[C@H](O)C1 [Example 653, 3-Amino-6-(2,6-difluoro-phenyl)-pyridine-2-carboxylic acid (3-hydroxy-3,4,5,6-tetra-hydro-2H-[1,4′]bipyridinyl-3′-yl)-amide]
< 1 µM: all assays above

Cc1cc(F)c(-c2ccc(N)c(C(=O)Nc3cnccc3N3CCCC(O)C3)n2)cc1Cl (stereo not drawn) [Example 654, 3-Amino-6-(5-chloro-2-fluoro-4-methyl-phenyl)-pyridine-2-carboxylic acid (3-hydroxy-3,4,5,6-tetrahydro-2H-[1,4′]bi-pyridinyl-3′-yl)-amide]
< 1 µM: all assays above

Nc1ccc(-c2cccc(Cl)c2F)nc1C(=O)Nc1cnccc1N1CCCC(O)C1 (stereo not drawn) [Example 655, 3-Amino-6-(3-chloro-2-fluoro-phenyl)-pyridine-2-carboxylic acid (3-hydroxy-3,4,5,6-tetra-hydro-2H-[1,4′]bipyridinyl-3′-yl)-amide]
< 1 µM: all assays above

Nc1ccc(-c2cc(C(=O)Nc3ccccc3)ccc2F)nc1C(=O)Nc1cnccc1N1CCCC(O)C1 (stereo not drawn) [Example 656, 3-Amino-6-(2-fluoro-5-phenyl-carbamoyl-phenyl)-pyridine-2-carboxylic acid (3-hydroxy-3,4,5,6-tetrahydro-2H-[1,4′]bi-pyridinyl-3′-yl)-amide]
< 1 µM: all assays above

CN(C)C(=O)c1ccc(F)c(-c2ccc(N)c(C(=O)Nc3cnccc3N3CCCC(O)C3)n2)c1 (stereo not drawn) [Example 657, 3-Amino-6-(5-dimethyl-carbamoyl-2-fluoro-phenyl)-pyridine-2-carboxylic acid (3-hydroxy-3,4,5,6-tetrahydro-2H-[1,4′]bipyridinyl-3′-yl)-amide]
< 1 µM: all assays above

Nc1ccc(-c2c(F)cccc2F)nc1C(=O)Nc1cnccc1N1CCCC(O)C1 (stereo not drawn) [Example 658, 3-Amino-6-(2,6-difluoro-phenyl)-pyridine-2-carboxylic acid (3-hydroxy-3,4,5,6-tetra-hydro-2H-[1,4′]bipyridinyl-3′-yl)-amide]
< 1 µM: all assays above

Nc1ccc(-c2ccccc2F)nc1C(=O)Nc1cnccc1N1CCC[C@@H](O)C1 [Example 659, 3-Amino-6-(2-fluoro-phenyl)-pyridine-2-carboxylic acid (3-hydroxy-3,4,5,6-tetrahydro-2H-[1,4′]bipyridinyl-3′-yl)-amide]
< 1 µM: all assays above

Nc1ccc(-c2ccccc2F)nc1C(=O)Nc1cnccc1N1CCC[C@H](O)C1 [Example 660, 3-Amino-6-(2-fluoro-phenyl)-pyridine-2-carboxylic acid (3-hydroxy-3,4,5,6-tetrahydro-2H-[1,4′]bipyridinyl-3′-yl)-amide]
< 1 µM: all assays above

Reference: patent US20140249135A1, “PIM KINASE INHIBITORS AND METHODS OF THEIR USE” (NOVARTIS AG, priority 2007, published 2014)
